Where a name gives a salt, the structure may show the parent alone.
Tested on: ATGL-KO iPSCs
Assay: High throughput iPSC chemical screening, Oil Red O (ORO) lipid accumulation; as to Z-score: test concentration or dose not given here
Format: cell-based, mouse
Settings: not given

Compound | Z-score
Cytisine (−) | 1.049

Same assay, conditions: glycolytic switch compounds

Compound | Rank in normalized ORO score from screen
CC1=CC(=O)c2ccccc2C1=O [Menadione] | 517
CCC(=O)O[C@H]1CC[C@H]2[C@@H]3CCC4=CC(=O)CC[C@]4(C)[C@H]3CC[C@]12C [Testosterone propionate] | 857

Same assay, conditions: normalized ORO level vs DMSO-treated cells; compound present during 7 days differentiation, 96-well; negative = decrease in lipid accumulation

Compound | Z-score
CC(C)(C)C(=O)OCOC(=O)[C@@H]1N2C(=O)[C@@H](NC(=O)[C@H](N)c3ccccc3)[C@H]2SC1(C)C [Pivampicillin] | −1.1929
COc1ccc2[nH]c3c(c2c1)CCN=C3C [Methoxy-6-harmalan] | 1.201
CC(=O)c1cc2ccccc2oc1=O [3-Acetylcoumarin] | −0.8473
CC1=C(C(=O)O)N2C(=O)[C@@H](NC(=O)[C@H](N)c3ccc(O)cc3)[C@H]2SC1 [Cefadroxil] | −0.5419
NC(N)=Nc1nc(CSCCC(N)=NS(N)(=O)=O)cs1 [Famotidine] | −1.1457
Cl.OC(CCN1CCCCC1)(c1ccccc1)C1CCCCC1 (stereo not drawn) [Trihexyphenidyl-D,L Hydrochloride] | 1.258
Clc1cnccn1 [2-Chloropyrazine] | −0.5863
C[N+]1(CCCCC[N+]2(C)CCCC2)CCCC1.O=C([O-])C(O)C(O)C(=O)O.O=C([O-])C(O)C(O)C(=O)O [Pentolinium bitartrate] | −0.9629
CCN(CC)CCNc1ccc(CO)c2sc3ccccc3c(=O)c12 [Hycanthone] | 20.1467
CC(=O)OCC(=O)[C@@]1(O)CC[C@H]2[C@@H]3CCC4=CC(=O)CC[C@]4(C)[C@@]3(F)[C@@H](O)C[C@@]21C [Fludrocortisone acetate] | −0.9911
Clc1cccc(Cl)c1N=C1NCCN1 [Clonidine hydrochloride] | 0.04408
COc1c2ccoc2nc2c(OC)c(OCC(O)C(C)(C)O)ccc12 (stereo not drawn) [Evoxine] | −0.3336
COc1c(O)cc2c(c1O)[C@@H]1O[C@H](CO)[C@@H](O)[C@H](O)[C@H]1OC2=O [Bergenin monohydrate] | −0.7293
CCN(CC)CCOC(=O)c1ccc(N)cc1 [Procaine hydrochloride] | −0.5215
Cl.N=C(N=C(N)N)N1CCOCC1 [Moroxidine hydrochloride] | 0.05075
CCN1C[C@]2(COC)CC[C@H](OC)[C@]34C5C[C@@H]6[C@@H](OC)C[C@@]7(OCO[C@@]7(C13)[C@@H](O)C24)C5[C@H]6OC (stereo partly drawn) [Delcorine] | −1.4115
CN1CCC(OC(c2ccccc2)c2ccccc2)CC1 [Diphenylpyraline hydrochloride] | 0.246
COc1cc(NS(=O)(=O)c2ccc(N)cc2)nc(OC)n1 [Sulfadimethoxine] | 0.4077
O=C(O)Cc1cc(I)c(Oc2ccc(O)c(I)c2)c(I)c1 | −0.9554
CN(C)C(=O)Oc1cccc([N+](C)(C)C)c1 [Neostigmine bromide] | 1.386
COc1cc(N)c(Cl)cc1C(=O)NC1CCN(CCCOc2ccc(F)cc2)CC1OC (stereo not drawn) [Cisapride] | 0.02062
COc1cc(Cc2cnc(N)nc2N)cc(OC)c1OC [Trimethoprim] | −0.9568
C[C@@H]1CC[C@@]2(NC1)O[C@H]1C[C@H]3[C@@H]4CC=C5C[C@@H](O)CC[C@]5(C)[C@H]4CC[C@]3(C)[C@H]1[C@@H]2C [Solasodine] | −0.5386
Cc1noc(NS(=O)(=O)c2ccc(N)cc2)c1C [Sulfisoxazole] | −0.0512

Compound | Z-score
NS(=O)(=O)c1cc2c(cc1Cl)NC(CC1CCCC1)NS2(=O)=O (stereo not drawn) [Cyclopenthiazide] | −1.4107
CNCCCC12CCC(c3ccccc31)c1ccccc12 [Maprotiline hydrochloride] | 0.03741
Cc1onc(-c2c(F)cccc2Cl)c1C(=O)N[C@@H]1C(=O)N2[C@@H]1SC(C)(C)[C@@H]2C(=O)O [Flucloxacillin sodium] | 0.5241
CN1[C@@H](C[C@@H](O)c2ccccc2)CCC[C@H]1C[C@H](O)c1ccccc1.Cl [Lobelanidine hydrochloride] | −0.6306
C[C@]12CC[C@H]3[C@@H](CC[C@]4(O)C[C@@H](O)CC[C@]34C=O)[C@@]1(O)CC[C@@H]2C1=CC(=O)OC1 [Strophanthidin] | 0.6732
Nc1c(O)cccc1C(=O)CC(N)C(=O)O (racemic) [Kynurenine, 3-hydroxy (R,S)] | 0.1567
(−)-Quinpirole hydrochloride | 1.311
CN[C@@H]1[C@@H](O)[C@@H](O[C@@H]2[C@@H](O)[C@H](O[C@H]3OC(CN)=CC[C@H]3N)[C@@H](N)C[C@H]2N)OC[C@]1(C)O [Sisomicin sulfate] | −0.7041
CN1C2CC(=O)CC1C(O)C2 (stereo not drawn) [6-Hydroxytropinone] | 0.54
Cc1ccsc1/C=C/C1=NCCCN1C [Morantel tartrate] | 1.005
N=C(N)NC(=O)c1nc(Cl)c(N)nc1N [Amiloride hydrochloride dihydrate] | 1.955
O.O.O=c1c(O)c(-c2ccc(O)c(O)c2)oc2cc(O)cc(O)c12 [Quercetine dihydrate] | −0.8659
CC(=O)S[C@@H]1CC2=CC(=O)CC[C@]2(C)[C@H]2CC[C@@]3(C)[C@@H](CC[C@@]34CCC(=O)O4)[C@H]12 [Spironolactone] | −1.7632
CC(=O)Nc1ccc(OCC(O)CNC(C)C)cc1 (stereo not drawn) [Practolol] | −0.3373
CN(Cc1cnc2nc(N)nc(N)c2n1)c1ccc(C(=O)N[C@@H](CCC(=O)O)C(=O)O)cc1 [Methotrexate] | 7.697
CS(=O)(=O)c1ccc([C@@H](O)[C@@H](CO)NC(=O)C(Cl)Cl)cc1 [Thiamphenicol] | 16.8903
O=C(Nc1ccccc1)OCC(CN1CCCCC1)OC(=O)Nc1ccccc1 (stereo not drawn) [Diperodon hydrochloride] | −0.6048
CCOC(=O)[C@H](CCc1ccccc1)N[C@@H](C)C(=O)N1[C@H](C(=O)O)C[C@@H]2CCC[C@@H]21 [Ramipril] | 1.188
COc1ccc(C(=O)c2ccccc2O)c(O)c1 [Dioxybenzone] | −1.6584
Cc1cc(C(=O)NNCc2ccccc2)no1 [Isocarboxazid] | 1.91
C[C@@H]1CC[C@@]2(OC1)O[C@H]1C[C@H]3[C@@H]4CC[C@@]5(C)C[C@@H](O)CC[C@]5(C)[C@H]4CC(=O)[C@]3(C)[C@H]1[C@@H]2C [Hecogenin] | 0.9208
CN(C)CCCC1(c2ccc(F)cc2)OCc2cc(C#N)ccc21 (stereo not drawn) [Citalopram Hydrobromide] | 0.03052
O=C1CN(/N=C/c2ccc([N+](=O)[O-])o2)C(=O)N1 [Nitrofurantoin] | 0.3631
CCN[C@@H]1C[C@H](N)[C@@H](O[C@H]2OC(CN)=CC[C@H]2N)[C@H](O)[C@H]1O[C@H]1OC[C@](C)(O)[C@H](NC)[C@H]1O.CCN[C@@H]1C[C@H](N)[C@@H](O[C@H]2OC(CN)=CC[C@H]2N)[C@H](O)[C@H]1O[C@H]1OC[C@](C)(O)[C@H](NC)[C@H]1O.O=S(=O)(O)O.O=S(=O)(O)O.O=S(=O)(O)O.O=S(=O)(O)O.O=S(=O)(O)O [Netilmicin sulfate] | 1.062

Compound | Z-score
CN(Cc1cnc2nc(N)nc(N)c2n1)c1ccc(C(=O)N[C@@H](CCC(=O)O)C(=O)O)cc1 (racemic) [Amethopterin (R,S)] | 15.6786
(−)-MK 801 hydrogen maleate | −0.2074
CN1CCC(=C2c3ccccc3C=Cc3ccccc32)CC1 [Cyproheptadine hydrochloride] | −1.6013
C[C@]12CCC(=O)C=C1CC[C@@H]1[C@@H]2C(=O)C[C@]2(C)C(=O)CC[C@@H]12 [Adrenosterone] | −1.025
NC(=O)c1cc[n+](CC2=C(C(=O)[O-])N3C(=O)[C@@H](NC(=O)Cc4cccs4)[C@H]3SC2)cc1 [Cefalonium] | −0.8363
CCOC(=O)OC(C)OC(=O)[C@@H]1N2C(=O)[C@@H](NC(=O)[C@H](N)c3ccccc3)[C@H]2SC1(C)C (stereo partly drawn) [Bacampicillin hydrochloride] | 0.09702
NS(=O)(=O)c1cc(C(=O)O)cc(N2CCCC2)c1Oc1ccccc1 [Piretanide] | 0.2521
Cc1ccccc1C(OCCN(C)C)c1ccccc1 (stereo not drawn) [Orphenadrine hydrochloride] | −0.3046
COc1cc(-c2ccc(N=Nc3ccc4c(S(=O)(=O)[O-])cc(S(=O)(=O)[O-])c(N)c4c3O)c(OC)c2)ccc1N=Nc1ccc2c(S(=O)(=O)[O-])cc(S(=O)(=O)[O-])c(N)c2c1O.[Na+].[Na+].[Na+].[Na+] [Chicago sky blue 6B] | 0.6958
O=C(O)CCC(=O)c1ccc(-c2ccccc2)cc1 [Fenbufen] | −0.3877
Verteporfin | −0.2331
CN(C)CCCOc1nn(Cc2ccccc2)c2ccccc12 [Benzydamine hydrochloride] | −0.3467
CC(C)(C)c1ccc(C(O)CCCN2CCC(C(O)(c3ccccc3)c3ccccc3)CC2)cc1 (stereo not drawn) [Terfenadine] | −0.8896
COc1ccc([C@@H]2CC(=O)c3c(O)cc(O[C@@H]4O[C@H](CO[C@@H]5O[C@@H](C)[C@H](O)[C@@H](O)[C@H]5O)[C@@H](O)[C@H](O)[C@H]4O)cc3O2)cc1O [Hesperidin] | 2.254
CC1=CC(=O)c2ccccc2C1=O [Menadione] | −0.29
CCC(=O)O[C@H]1CC[C@H]2[C@@H]3CCC4=CC(=O)CC[C@]4(C)[C@H]3CC[C@]12C [Testosterone propionate] | 0.7489
CCC1(c2ccccc2)NC(=O)N(C)C1=O (stereo not drawn) [Mephenytoin] | 0.8864
CCCCCCCCNC(C)C(O)c1ccc(SC(C)C)cc1 (stereo not drawn) [Suloctidil] | 21.8147
CC(=O)Nc1ccc(O)cc1 [Acetaminophen] | −0.6512
COC(=O)[C@H]1[C@H]2C[C@H]3c4[nH]c5ccccc5c4CCN3C[C@@H]2CC[C@@H]1O.Cl [Corynanthine hydrochloride] | −0.2498
CC(CNC1CCCCC1)OC(=O)c1ccccc1 (stereo not drawn) [Hexylcaine hydrochloride] | 0.687
C1COC(NC(C2CC2)C2CC2)=N1 [Rilmenidine hemifumarate] | −1.0936
Nc1nc(=O)c2c([nH]1)NCC(CNc1ccc(C(=O)N[C@@H](CCC(=O)[O-])C(=O)[O-])cc1)N2C=O.[Ca+2] (stereo partly drawn) [Folinic acid calcium salt] | −0.7409
CC(=O)OCC(=O)[C@@]1(OC(C)=O)[C@@H](C)C[C@H]2[C@@H]3C[C@H](F)C4=CC(=O)C=C[C@]4(C)[C@@]3(F)[C@@H](O)C[C@@]21C [Diflorasone Diacetate] | 0.6842

From patent US9393221B2, “Methods and compounds for reducing intracellular lipid storage” (THE GENERAL HOSPITAL CORPORATION, priority 2011, dated 2016)
